Assay results reported in paper PMC5904360, “Soluble N-Ethylmaleimide-Sensitive Factor Attachment Protein Receptor-Derived Peptides for Regulation of Mast Cell Degranulation” (Frontiers in Immunology, 2018).

Tested on: NC/Nga mice
Test: DNCB-induced atopic dermatitis-like skin lesions
Format: in vivo, mouse
From the text: Seven-week-old NC/Nga mice were purchased from the Shizuoka Laboratory Animal Center (Shizuoka, Japan) and allowed to adapt to the environment for a week prior to use. The procedures for the induction of atopic dermatitis-like symptoms in mice using 1-chloro-2,4-dinitro-benzene (DNCB) have been well described previously ([27]). Briefly, the dorsal hair of the mice was shaved 2 days before DNCB administration. For the induction of atopic dermatitis, 1% DNCB was applied to the dorsal skin of the mice twice weekly for 7 days and then 0.2% DNCB was applied thrice weekly for 21 days. The mice were divided into the following […] treatment groups (n = 10 per group): 0.3 and 3% Vp2N/day, 0.3 and 3% Vp8N/day, 0.1% dexamethasone/day, and vehicle only, dorsally administered from 9 to 13 weeks of age. As a negative control for atopic dermatitis, NC/Nga mice that were not treated with DNCB were maintained under pathogen-free conditions. Laboratory animal breeding management was based on the “Guide for the Care and Use of Laboratory Animals,” and all experiments were approved by the Institutional Animal Care and Use Committees of Gyeonggi Institute of Science & Technology.

With “LQSEVEGVKNIMTQNVE [Vp8N, 17-mer peptide, N-terminal region of VAMP8 SNARE motif]” the epidermal thickness (0.3 and 3% peptide/day dorsally for 4 weeks, n = 10 per group, versus DNCB/vehicle-treated group (Figure 5C)) was “significantly reduced”, the “atopic dermatitis features (acanthosis, hypergranulosis, hyperkeratosis) in hematoxylin and eosin-stained sections” value (0.3 and 3% peptide/day dorsally, 9 to 13 weeks of age, n = 10 per group, compared with 0.1% dexamethasone/day group (Figure 5B)) was “clearly alleviated to a similar extent” and the ear thickness (0.3 and 3% peptide/day or 0.1% dexamethasone/day for 4 weeks, n = 10 per group (Figure 5D)) was “reduced”. For the same sequence, the “serum IgE levels” value (daily dorsal application for 4 weeks, n = 10 per group (Figure 5F)) was “significantly reduced”.
